Earlier results as cited in US5681581A, “Controlled release pharmaceutical formulations of 3'-azido-3'-deoxythymidine and methods of use” (priority 1995, dated 1997).
“Also recorded” adds a separate entry of the source.

How the values were obtained:
[1] = test system: reverse transcriptase; conditions: result in words
[2] = test system: DNA polymerase; conditions: result in words
[3] = test system: bone marrow cells; conditions: than AZT
[4] = test system: HIV; conditions: result in words
[5] = result in words
[6] = intravenous AZT 2.5 mg/kg, patients
[7] = test system: cells of HIV infected patients; conditions: HIV infected patients taking AZT
[8] = animals
[9] = capsules and liquid solutions, oral
[10] = test system: HIV

Structure (SMILES): Cc1cn([C@H]2C[C@H](N)[C@@H](COP(=O)(O)OP(=O)(O)OP(=O)(O)O)O2)c(=O)[nH]c1=O [AMT 5'triphosphate]
- inhibition of reverse transcriptase [1]: inhibitor of HIV reverse transcriptase
- inhibition of DNA polymerase [2]: inhibitor of DNA polymerase

Structure (SMILES): Cc1cn([C@H]2C[C@H](N)[C@@H](CO)O2)c(=O)[nH]c1=O [AMT, 3'-amino-3'-deoxythymidine]
- binding of the reverse transcriptase enzyme [1]: competitive binding
- toxicity to bone marrow cells relative to AZT [3]: 5-7 times more toxic
- antiviral activity [4]: no antiviral activity; also recorded: poor antiviral activity
- effect on the anti-HIV action of AZT [4]: antagonistic effect
- anti-cancer effects [5]: potent anti-cancer effects
- AMT level relative to AZT by AUC [6]: about twenty

Structure (SMILES): Cc1cn([C@H]2C[C@H](N=[N+]=[N-])[C@@H](CO)O2)c(=O)[nH]c1=O [AZT, 3'-azido-3'-deoxythymidine]
- relationship between phosphorylated AZT and dosage or blood levels [7]: showed no relationship
- AMT levels by oral route [8]: higher levels of AMT
- absorption from the gastrointestinal tract [9]: rapidly absorbed
- inhibition of reverse transcriptase [1]: inhibitor of reverse transcriptase
- effectiveness in asymptomatic sero-positive patients ([10]; 1500 mg per day): not as effective as 500 mg per day
- toxicity of dose ([10]; human, in vivo): too toxic

Structure (SMILES): Cc1cn([C@H]2C[C@H](N=[N+]=[N-])[C@@H](COP(=O)(O)OP(=O)(O)OP(=O)(O)O)O2)c(=O)[nH]c1=O [triphosphate form]
- inhibitory effect on viral transcription [4]: most inhibitory effect
